Reference: patent US20170314074A1, “LPA-ASSOCIATED PROTEIN AND RNA EXPRESSION” (Intermune, Inc., priority 2014, published 2017)

System: normal human lung fibroblasts, human bronchial epithelial cells, and human pulmonary alveolar epithelial cells
Assay: Secreted protein expression after LPA induction, aptamer-based proteomic platform (SomaLogic, 1129 proteins)
Format: cell-based
Conditions: 24 hours
Protocol: Changes in gene expression after 3 hours of LPA induction were profiled on Affymetrix Human Gene ST 2.0 microarrays; differentially expressed genes identified by ANOVA with FDR <0.05 and fold-change >1.2. Process networks associated with differentially expressed genes were defined using MetaCore. Changes in secreted protein expression after 24 hours of LPA induction were profiled on an aptamer-based proteomic platform (1129 proteins); differentially expressed proteins identified by t-test.
Treatment of cells with LPA, isolation supernatant, analysis of secreted protein expression using soma panel was performed as follows: Supernatant was collected from in vitro cultures of normal human lung fibroblasts, human bronchial epithelial cells, and human pulmonary alveolar epithelial cells treated for 24 hours with LPA and/or LPAR1 inhibitor. Each treatment condition was assayed in triplicate. 1129 proteins were profiled using a broad aptamer-based proteomic platform (SomaLogic, Colo., US). Briefly, the technology uses DNA aptamers containing chemically modified nucleotides as highly specific protein binding reagents in a multiplexed assay that transforms the quantity of each targeted protein into a corresponding quantify of the aptamer. Protein quantities are then detected on a microarray platform and recorded as Relative Fluorescence Units (RFU).
In Tables 1-5 The differentially expressed secreted proteins set forth in Tables 1, 2, and 5 and the differentially expressed mRNAs set forth in Table 3 and 4 were identified by visual inspection of individual dot-plots.
For the gene and protein expression analysis primary fibroblasts (NHLF product #CC-2512 from Lonza group LTD) and primary epithelial cells (NHBE Product #CC-2540 from Lonza; HPAEpiC Product #3200 from Sciencell (USA, California)) were cultured as recommended by the manufacturer, except they were cultured on collagen coated plates. As part of the induction protocol cells were starved overnight in low (0.2 or 0.1% serum) or no serum (0%), prior to stimulation with LPA.

## lysophosphatidic acid [LPA]
  effect of LPA, 41 (EPB41): up
  effect of LPA, ADAM 9 (ADAM9): up
  effect of LPA, ALCAM (ALCAM): up
  effect of LPA, ANGL4 (ANGPTL4): up
  effect of LPA, AREG (AREG): up
  effect of LPA, ARTS1 (ERAP1): up
  effect of LPA, ASM3A (SMPDL3A): up
  effect of LPA, ATS1 (ADAMTS1): down
  effect of LPA, Activin A (INHBA): up
  effect of LPA, Aminoacylase-1 (ACY1): up
  effect of LPA, Angiogenin (ANG): up
  effect of LPA, Angiopoietin-1 (ANGPT1): up
  effect of LPA, Angiopoietin-2 (ANGPT2): down
  effect of LPA, Angiostatin (PLG): down
  effect of LPA, Apo E2 (APOE): down
  effect of LPA, Apo E3 (APOE): down
  effect of LPA, B7-H1 (CD274): up
  effect of LPA, BASI (BSG): up
  effect of LPA, BFL1 (BCL2A1): up
  effect of LPA, BGH3 (TGFBI): up
  effect of LPA, BGN (BGN): up
  effect of LPA, BSSP4 (PRSS22): up
  effect of LPA, Bone proteoglycan II (DCN): up
  effect of LPA, CAPG (CAPG): up
  effect of LPA, CATZ (CTSZ): up
  effect of LPA, CK2-A1:B (CSNK2A1 CSNK2B): up
  effect of LPA, COMMD7 (COMMD7): up
  effect of LPA, CRDL1 (CHRDL1): up
  effect of LPA, CTAP-III (PPBP): up
  effect of LPA, Caspase-3 (CASP3): up
  effect of LPA, Cathepsin A (CTSA): up
  effect of LPA, Cathepsin H (CTSH): up
  effect of LPA, Cathepsin S (CTSS): up
  effect of LPA, Cathepsin V (CTSL2): up
  effect of LPA, Coagulation Factor Xa (F10): down
  effect of LPA, Cofilin-1 (CFL1): up
  effect of LPA, Cyclophilin A (PPIA): up
  effect of LPA, Cystatin M (CST6): up
  effect of LPA, DAF (CD55): up
  effect of LPA, DBNL (DBNL): up
  effect of LPA, DERM (DPT): down
  effect of LPA, DKK1 (DKK1): up
  effect of LPA, DKK3 (DKK3): up
  effect of LPA, DPP2 (DPP7): up
  effect of LPA, DcR3 (TNFRSF6B): up
  effect of LPA, Discoidin domain receptor 2 (DDR2): up
  effect of LPA, Dkk-4 (DKK4): up
  effect of LPA, EMR2 (EMR2): up
  effect of LPA, ENA-78 (CXCL5): up
  effect of LPA, EPHA3 (EPHA3): up
  effect of LPA, EPI (EREG): up
  effect of LPA, Elafin (PI3): up
  effect of LPA, Endocan (ESM1): up
  effect of LPA, Endothelin-converting enzyme 1 (ECE1): up
  effect of LPA, Eotaxin (CCL11): up
  effect of LPA, EphB4 (EPHB4): up
  effect of LPA, Ephrin-A5 (EFNA5): up
  effect of LPA, Ephrin-B3 (EFNB3): up
  effect of LPA, Epithelial cell kinase (EPHA2): up
  effect of LPA, FCAR (FCAR): down
  effect of LPA, FGF7 (FGF7): up
  effect of LPA, FGF-18 (FGF18): down
  effect of LPA, FGF-20 (FGF20): up
  effect of LPA, FST (FST): up
  effect of LPA, FSTL3 (FSTL3): up
  effect of LPA, Flt-3 (FLT3): up
  effect of LPA, G-CSF (CSF3): up
  effect of LPA, GAPDH liver (GAPDH): up
  effect of LPA, GCP-2 (CXCL6): up
  effect of LPA, GDF-9 (GDF9): down
  effect of LPA, GREM1 (GREM1): up
  effect of LPA, GRN (GRN): up
  effect of LPA, GV (PLA2G5): up
  effect of LPA, Galectin-3 (LGALS3): up
  effect of LPA, Gro-a (CXCL1): up
  effect of LPA, Gro-b/g (CXCL3 CXCL2): up
  effect of LPA, HGF (HGF): up
  effect of LPA, IDE (IDE): up
  effect of LPA, IGF-I sR (IGF1R): up
  effect of LPA, IGF-II receptor (IGF2R): up
  effect of LPA, IGFBP-2 (IGFBP2): down
  effect of LPA, IGFBP-3 (IGFBP3): up
  effect of LPA, IGFBP-7 (IGFBP7): up
  effect of LPA, IL-1 R4 (IL1RL1): up
  effect of LPA, IL-6 (IL6): up
  effect of LPA, IL-6 sRa (IL6R): up
  effect of LPA, IL-8 (IL8): up
  effect of LPA, IL-11 (IL11): up
  effect of LPA, IL-12 RB2 (IL12RB2): up
  effect of LPA, IL-17D (IL17D): up
  effect of LPA, IP-10 (CXCL10): up
  effect of LPA, JAG1 (JAG1): up
  effect of LPA, JAG2 (JAG2): up
  effect of LPA, KPCI (PRKCI): up
  effect of LPA, LG3BP (LGALS3BP): up
  effect of LPA, LGMN (LGMN): up
  effect of LPA, LRIG3 (LRIG3): up
  effect of LPA, Layilin (LAYN): up
  effect of LPA, MCP-1 (CCL2): up
  effect of LPA, MCP-3 (CCL7): up
  effect of LPA, MICA (MICA): up
  effect of LPA, MICB (MICB): up
  effect of LPA, MIP-3a (CCL20): up
  effect of LPA, MMP-1 (MMP1): up
  effect of LPA, MMP-3 (MMP3): up
  effect of LPA, MMP-9 (MMP9): up
  effect of LPA, MMP-10 (MMP10): up
  effect of LPA, MMP-12 (MMP12): up
  effect of LPA, MMP-13 (MMP13): up
  effect of LPA, MRC2 (MRC2): up
  effect of LPA, Met (MET): up
  effect of LPA, Midkine (MDK): up
  effect of LPA, NAGK (NAGK): up
  effect of LPA, NAP-2 (PPBP): up
  effect of LPA, NCAM-L1 (L1CAM): up
  effect of LPA, NET4 (NTN4): up
  effect of LPA, NID2 (NID2): up
  effect of LPA, NKp46 (NCR1): up
  effect of LPA, NRP1 (NRP1): up
  effect of LPA, NRX3B (NRXN3): up
  effect of LPA, NXPH1 (NXPH1): up
  effect of LPA, Neurotrophin-3 (NTF3): up
  effect of LPA, Nogo Receptor (RTN4R): up
  effect of LPA, NovH (NOV): up
  effect of LPA, OMD (OMD): up
  effect of LPA, ON (SPARC): up
  effect of LPA, PAI-1 (SERPINE1): up
  effect of LPA, PARK7 (PARK7): up
  effect of LPA, PCSK7 (PCSK7): up
  effect of LPA, PDGF-AA (PDGFA): up
  effect of LPA, PDGF-BB (PDGFB): up
  effect of LPA, PTHrP (PTHLH): up
  effect of LPA, Protease nexin I (SERPINE2): up
  effect of LPA, RAC1 (RAC1): up
  effect of LPA, RANTES (CCL5): up
  effect of LPA, RAP (LRPAP1): up
  effect of LPA, RGMB (RGMB): up
  effect of LPA, ROBO2 (ROBO2): up
  effect of LPA, SARP-2 (SFRP1): up
  effect of LPA, SCGF-alpha (CLEC11A): up
  effect of LPA, SDF-1 (CXCL12): up
  effect of LPA, SLIK5 (SLITRK5): up
  effect of LPA, ST4S6 (CHST15): up
  effect of LPA, Semaphorin 3A (SEMA3A): up
  effect of LPA, Sphingosine kinase 1 (SPHK1): up
  effect of LPA, Spondin-1 (SPON1): down
  effect of LPA, TAJ (TNFRSF19): up
  effect of LPA, TFPI (TFPI): up
  effect of LPA, TGF-b R III (TGFBR3): up
  effect of LPA, TIG2 (RARRES2): up
  effect of LPA, TIMP-3 (TIMP3): up
  effect of LPA, TNF sR-I (TNFRSF1A): up
  effect of LPA, TNF sR-II (TNFRSF1B): up
  effect of LPA, TNFSF15 (TNFSF15): up
  effect of LPA, TSG-6 (TNFAIP6): up
  effect of LPA, TSLP (TSLP): up
  effect of LPA, TSP2 (THBS2): up
  effect of LPA, TWEAK (TNFSF12): down
  effect of LPA, TXD12 (TXNDC12): up
  effect of LPA, Thrombospondin-1 (THBS1): up
  effect of LPA, TrATPase (ACP5): down
  effect of LPA, UNC5H3 (UNC5C): up
  effect of LPA, URB (CCDC80): up
  effect of LPA, VEGF121 (VEGFA): up
  effect of LPA, VEGF (VEGFA): up
  effect of LPA, VEGF-C (VEGFC): up
  effect of LPA, WKFN1 (GPRASP2): down
  effect of LPA, annexin I (ANXA1): up
  effect of LPA, discoidin domain receptor 1 (DDR1): up
  effect of LPA, eIF-5A-1 (EIF5A): down
  effect of LPA, sFRP-3 (FRZB): down
  effect of LPA, suPAR (PLAUR): up
  effect of LPA, uPA (PLAU): up
